For the assay, the target named is mouse DPP1 enzyme (Mus musculus (Mouse), UniProt P97821). Put plainly: Mouse DPP1 Enzyme IC50 Assay. The note with it: active mouse DPP1 enzyme, H-Gly-Arg-AMC substrate, 10 min pre-incubation at 37° C., MES pH 5.5. The class given is biochemical. The procedure:
Test articles were applied to active mouse DPP1 enzyme (R&D Systems; Minneapolis, MN) in Assay Buffer (50 mM MES pH 5.5, 50 mM NaCl, 5 mM DTT) in a total reaction volume of 125 μL. 25 μL of compound in Assay Buffer plus 5% DMSO was first added to 50 μL of active mouse DPP1 enzyme at a concentration of 62.5 pg/μL and allowed to pre-incubate for 10 minutes at 37° C. after which 50 μL of 1000 μM H-Gly-Arg-AMC substrate (Bachem; St. Torrance, CA) was added, giving final substrate concentration of 400 µM and a final DMSO concentration of 1%. Substrate cleavage was measured for 90 minutes at 37° C., with fluorescence at Excitation/Emission 350/450 nm measured every 5 minutes. DPP1 concentration was interpolated based on its activity relative to a standard curve of recombinant active mouse DPP1 enzyme. IC50 values for each compound were calculated via the XLFit (IDBS Version 5.3.1.3) Add-On to Microsoft Excel using the four parameter fit equation y=(A+((B−A)/(1+ ((C/x)^D)))), which appears as equation number 205 (4 Parameter Logistic Model or Sigmoidal Dose-Response Model) in XLFit. Default constraints were used for each Parameter. IC50 was defined as the compound concentration at which 50% of enzyme activity was inhibited when compared to the no-compound control.

mouse DPP1 enzyme, sequence (P97821 25-134): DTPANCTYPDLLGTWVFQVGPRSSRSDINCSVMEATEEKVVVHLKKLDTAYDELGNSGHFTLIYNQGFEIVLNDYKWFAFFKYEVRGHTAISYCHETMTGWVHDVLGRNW
mouse DPP1 enzyme, sequence (P97821 231-393): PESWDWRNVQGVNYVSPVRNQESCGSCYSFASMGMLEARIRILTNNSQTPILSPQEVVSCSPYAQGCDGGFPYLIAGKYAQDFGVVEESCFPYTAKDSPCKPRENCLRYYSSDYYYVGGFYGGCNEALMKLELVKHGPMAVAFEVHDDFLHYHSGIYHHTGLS
mouse DPP1 enzyme, sequence (P97821 394-462): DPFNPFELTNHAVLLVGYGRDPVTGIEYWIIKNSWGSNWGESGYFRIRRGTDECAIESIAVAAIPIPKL

Regarding `Cn1c(=O)oc2ccc(-c3ccc(C[C@@H](C#N)NC(=O)[C@H]4CCCCCNC4)cc3)cc21` (single isomer, unassigned), the IC50 was 54 nM.

As for `Cn1c(=O)oc2ccc(-c3ccc(C[C@@H](C#N)NC(=O)[C@@H]4CNCCCCO4)cc3)cc21` (single isomer, unassigned) [drawing 490], half-maximal inhibition (IC50) was put at 41.4 ± 4.5 nM.

`Cn1c(=O)oc2ccc(-c3ccc(C[C@@H](C#N)NC(=O)[C@@H]4CNC[C@](C)(O)CO4)cc3)cc21` (single isomer, unassigned) [drawing 491] returned an IC50 of 351 ± 223 nM.

With `CC[C@@]1(O)CNC[C@@H](C(=O)N[C@H](C#N)Cc2ccc(-c3ccc4oc(=O)n(C)c4c3)cc2)OC1` (single isomer, unassigned) [drawing 492], half-maximal inhibition (IC50) was put at 36.9 nM.

As to `CC[C@]1(O)CNC[C@@H](C(=O)N[C@H](C#N)Cc2ccc(-c3ccc4oc(=O)n(C)c4c3)cc2)OC1` (single isomer, unassigned) [drawing 493], the IC50 stood at 4040 nM.

In turn, `CC(C)[C@]1(O)CNC[C@@H](C(=O)N[C@H](C#N)Cc2ccc(-c3ccc4oc(=O)n(C)c4c3)cc2)OC1` (single isomer, unassigned) [drawing 494] returned an IC50 of more than 5000 nM.

The compound `Cn1c(=O)oc2ccc(-c3ccc(C[C@@H](C#N)NC(=O)[C@@H]4CNCC5(CCO5)CO4)cc3)cc21` (single isomer, unassigned) [drawing 495] came in with an IC50 of 4.2 ± 0.8 nM.

With `Cn1c(=O)oc2ccc(-c3ccc(C[C@@H](C#N)NC(=O)[C@@H]4CNC[C@@]5(CCO5)CO4)cc3)cc21` (single isomer, unassigned) [drawing 496], half-maximal inhibition (IC50) required 2.36 ± 0.3 nM.

On to `Cn1c(=O)oc2ccc(-c3ccc(C[C@@H](C#N)NC(=O)[C@@H]4CNCCCCO4)cc3)cc21` (single isomer, unassigned) [drawing 497], for which the IC50 amounted to 33.9 ± 4 nM.

`CN1CC2(C1)OC(=O)c1ccc(-c3ccc(C[C@@H](C#N)NC(=O)[C@@H]4CNCCCCO4)cc3)cc12` (single isomer, unassigned) [drawing 498]: it took 17.8 ± 2 nM to reach half-maximal inhibition (IC50).

In turn, `CCO[C@@H]1CCNC[C@@H](C(=O)N[C@H](C#N)Cc2ccc(-c3ccc4oc(=O)n(C)c4c3)cc2)OC1` (single isomer, unassigned) [drawing 499] came in with an IC50 of 6.05 ± 2 nM.

For `Cn1c(=O)oc2ccc(-c3ccc(C[C@@H](C#N)NC(=O)C4CCCCCNC4)c(F)c3)cc21` (single isomer, unassigned) [drawing 500], the IC50 is 13.1 ± 3.7 nM.

In turn, `Cn1c(=O)oc2ccc(-c3ccc(C[C@@H](C#N)NC(=O)[C@H]4CCCCCNC4)c(F)c3)cc21` (single isomer, unassigned) [drawing 501] yielded an IC50 of 148 ± 16 nM.

With `CCO[C@@]1(C)CNC[C@@H](C(=O)N[C@H](C#N)Cc2ccc(-c3ccc4oc(=O)n(C)c4c3)cc2)OC1` (single isomer, unassigned) [drawing 503], the IC50 was more than 5000 nM.

`CCO[C@]1(C)CNC[C@@H](C(=O)N[C@H](C#N)Cc2ccc(-c3ccc4oc(=O)n(C)c4c3)cc2)OC1` (single isomer, unassigned) [drawing 504]: the IC50 came out at 1640 nM.

Consider `CO[C@@H]1CCO[C@H](C(=O)N[C@H](C#N)Cc2ccc(-c3ccc4oc(=O)n(C)c4c3)cc2)CNC1` (single isomer, unassigned) [drawing 505], for which the IC50 was found to be 7.04 nM.

In turn, `Cn1c(=O)oc2ccc(-c3ccc(C[C@@H](C#N)NC(=O)C4CCCCCNC4)cc3)cc21` (stereo partly drawn) [IA] showed an IC50 of 63.4 nM.

As for `Cn1c(=O)oc2ccc(-c3ccc(C[C@@H](C#N)NC(=O)[C@@H]4CCCCCNC4)cc3)cc21` [drawing 502], the IC50 turned out to be 629 nM.
